Assay results reported in ChEMBL document CHEMBL3046344, “Phytochemical based strategies for nematode control” (2002).
In brackets after ≈: the same amount, converted by molar mass. Numbered stars: 1 amine (or outer) side, 2 acyl side, 3 side chain; on linkers, the order of the positions; unused ones are H or OH. Bridge positions count the residues as written; N and C are the ends. Square brackets hold non-standard residues; d marks the D form. Peptide text beside a SMILES is read from it. NMeW = CN[C@@H](Cc1c[nH]c2ccccc12)C(=O)O; X1 = CC(C)[C@@H](C(=O)[*:1])N(C)O[*:2]; NMeI = CC[C@H](C)[C@H](NC)C(=O)O; NMeV = CN[C@H](C(=O)O)C(C)C; Sar = CNCC(=O)O

Experiments:
Format in all cases: functional
Meloidogyne incognita [1] = assay: Nematocidal activity against Meloidogyne incognita (root-knot nematode); conditions: read-out: LD50 (the source's name)
Caenorhabditis elegans [2] = assay: Nematocidal activity against Caenorhabditis elegans assessed as mortality; conditions: for LC50 / minimal effective concentration: Caenorhabditis elegans; for minimal effective concentration: read-out: MEC
Ditylenchus dipsaci = assay: Nematocidal activity against Ditylenchus dipsaci assessed as motility; conditions: read-out: ED50 (the source's name)
Meloidogyne incognita [3] = assay: Nematocidal activity against Meloidogyne incognita (root-knot nematode) assessed as mortality at 10 ug/ml
Panagrellus redivivus [4] = assay: Nematocidal activity against Panagrellus redivivus assessed as mortality at 12.5 ug/ml
Caenorhabditis elegans [5] = assay: Nematocidal activity against Caenorhabditis elegans assessed as mortality at 50 ug/ml
Meloidogyne incognita [6] = assay: Nematocidal activity against Meloidogyne incognita (root-knot nematode) assessed as inhibition of penetration in tomato root at 25 ug/ml; design: scale not given: the % may be the effect or the level left
Pratylenchus penetrans [7] = assay: Nematocidal activity against Pratylenchus penetrans; conditions: read-out: LD50 (the source's name)
Radopholus similis = assay: Nematocidal activity against Radopholus similis; conditions: read-out: LD50 (the source's name)
Heterodera schachtii = assay: Nematocidal activity against Heterodera schachtii; conditions: read-out: LD50 (the source's name)
Panagrellus redivivus [8] = assay: Nematocidal activity against Panagrellus redivivus; conditions: read-out: ED50 (the source's name)
Meloidogyne incognita [9] = assay: Nematocidal activity against Meloidogyne incognita (root-knot nematode) assessed as motility and viability
Pratylenchus penetrans [10] = assay: Nematocidal activity against Pratylenchus penetrans assessed as motility and viability
Meloidogyne incognita [11] = assay: Nematocidal activity against Meloidogyne incognita (root-knot nematode) in tomato assessed as reduction of infection at 50 ug/ml; design: scale not given: the % may be the effect or the level left
[12] = read-out: LD50 (the source's name)

Work on `CCCCC/C=C\C/C=C\CCCCCCCC(=O)O` [LINOLEIC ACID] yielded an LC50 (Meloidogyne incognita [1]) of 50 mg/L (≈ 178 µM) and an LC50 (Caenorhabditis elegans [2]; [12]) of 5 mg/L (≈ 17.8 µM).

`C=Cc1ccc(O)cc1` [4-VINYLPHENOL] was tested, and the minimal effective concentration (Caenorhabditis elegans [2]) was 300 µg/mL.

With `COc1c(-c2ccco2)coc(=O)c1C` [CLADOBOTRIN] the LC50 (Meloidogyne incognita [1]) was 100 mg/L (≈ 485 µM).

With `COc1cc(O)cc(/C=C/c2ccccc2)c1` [PINOSYLVIN METHYL ETHER] the LC50 (Caenorhabditis elegans [2]; [12]) was 4 mg/L (≈ 17.7 µM).

Work on `C=C(C)[C@@H]1CCC2=C[C@@H](O)[C@H](O)[C@@H](C)C2C1` (some centres undefined) [RISHITIN] yielded an EC50 (Ditylenchus dipsaci) of 100 mg/L (≈ 450 µM).

`CCCCCCCC/C=C\C(=O)O` [2-UNDECYLENIC ACID] gave an Activity (Meloidogyne incognita [3]) of 70%.

For `CCCCC1OC(=O)C2=C1CCC=C2` (centres undefined) [3-N-BUTYL-4,5-DIHYDROPHTHALIDE], the Activity (Panagrellus redivivus [4]) was 100% and the Activity (Caenorhabditis elegans [5]) was 100%.

For `C=CCc1ccc(O)c(O)c1` [HYDROXYCHAVICOL], the minimal effective concentration (Caenorhabditis elegans [2]) was 300 µg/mL.

`C=CCS[S+]([O-])CC=C` (centres undefined) [ALLICIN] showed an Activity (Meloidogyne incognita [6]) of 50%.

`C=CCc1ccc(O)cc1` [CHAVICOL] showed a minimal effective concentration (Caenorhabditis elegans [2]) of 300 µg/mL.

`Oc1ccccc1O` [CATECHOL] gave an Activity (Caenorhabditis elegans [2]) of 100%.

In the case of `CC[C@H](C)[C@H]1C(=O)NCC(=O)N(C)[C@@H](Cc2c[nH]c3ccccc23)C(=O)N[C@@H](C(C)C)C(=O)N(C)[C@@H]([C@@H](C)CC)C(=O)N(C)[C@@H](C(C)C)C(=O)ON(C)[C@@H](C(C)C)C(=O)N(C)CC(=O)N(C)[C@@H](C(C)C)C(=O)N(C)[C@@H]([C@@H](C)CC)C(=O)N(C)CC(=O)N[C@@H](C(C)C)C(=O)N1C` [OMPHALOTIN A] ([Sar][NMeV][NMeI][Sar]V[NMeI]G[NMeW]V[NMeI][NMeV]; linker N-C via X1), the LC50 (Meloidogyne incognita [1]) is reported as 0.75 mg/L (≈ 0.562 µM), the LC50 (Pratylenchus penetrans [7]) is reported as 25 mg/L (≈ 18.7 µM) and the LC50 (Radopholus similis) is reported as > 75 mg/L. It also gave an LC50 (Heterodera schachtii) of 30 mg/L (≈ 22.5 µM).

In the case of `COc1cc(CC(C)C(C)Cc2ccc(O)c(OC)c2)ccc1O` (centres undefined) [DIHYDROGUAIARETIC ACID], the LC50 (Caenorhabditis elegans [2]; [12]) is reported as 10 mg/L (≈ 30.3 µM).

Work on `C[C@H]1CC[C@]2(NC1)O[C@H]1C[C@H]3[C@@H]4CC[C@H]5C[C@@H](O[C@@H]6O[C@H](CO)[C@H](O[C@@H]7O[C@H](CO)[C@@H](O)[C@H](O[C@@H]8OC[C@@H](O)[C@H](O)[C@H]8O)[C@H]7O[C@@H]7O[C@H](CO)[C@@H](O)[C@H](O)[C@H]7O)[C@H](O)[C@H]6O)CC[C@]5(C)[C@H]4CC[C@]3(C)[C@H]1[C@@H]2C` [TOMATINE] yielded an EC50 (Panagrellus redivivus [8]) of 50 mg/L (≈ 48.3 µM).

`CC(=O)C#Cc1ccccc1` [4-PHENYL-3-BUTYN-2-ONE] gave an LC50 (Caenorhabditis elegans [2]; read-out: LC50) of 0.3 mg/L (≈ 2.08 µM).

Molecule `C[C@H]1CC[C@@H]2[C@@H](C)[C@H]3[C@H](C[C@H]4[C@@H]5CC=C6C[C@@H](O[C@@H]7O[C@H](CO)[C@H](O[C@@H]8O[C@@H](C)[C@H](O)[C@@H](O)[C@H]8O)[C@H](O)[C@@H]7O[C@@H]7O[C@@H](C)[C@@H](O)[C@@H](O)[C@H]7O)CC[C@]6(C)[C@H]5CC[C@]34C)N2C1` [ALPHA-CHACONINE] has an EC50 (Panagrellus redivivus [8]) of 85 mg/L (≈ 99.8 µM).

`C=C/C=C/C#CC1=CC=C(C#CC)SS1` [THIARUBRINE C] showed an LC50 (Meloidogyne incognita [9]) of 12400 mg/L (≈ 53800 µM), an LC50 (Pratylenchus penetrans [10]) of 23500 mg/L (≈ 102000 µM) and an Activity (Meloidogyne incognita [11]) of 95%.
